The values that follow come from paper PMC8776094, “Reactive Oxygen Species Production Is Responsible for Antineoplastic Activity of Osmium, Ruthenium, Iridium and Rhodium Half-Sandwich Type Complexes with Bidentate Glycosyl Heterocyclic Ligands in Various Cancer Cell Models” (International Journal of Molecular Sciences, 2022).

The subject of series [1] is A2780 ovarian cancer cells. In words: SRB assay, 48 h, cytostasis, A2780. It counts as cell-based. The note with it: for cytostatic activity on A2780 cells in SRB assay (in words): 48 h treatment; for IC50 / A2780 Max. Inh. (%): SRB assay, 48 h; for A2780 Max. Inh. (%): ND = not detected. The procedure: (§1) The compounds were tested between 0.001694 and 33.3333 µM, using a 4-hour-long MTT test to assess rapid toxicity and a 48-hour-long SRB assay to assess the long-term effects of the inhibition of proliferation (cytostasis). The MTT assay assesses the activity of mitochondrial complex I and detects rapid, direct toxicity, as well as indicating apoptosis and necrosis. The SRB assay measures the total protein content that is proportional to cell numbers; therefore, the assay can detect changes in cell numbers and can thus be used as a readout for cell proliferation. The SRB assay was performed after 48 h of treatment (with the exception of L428 cells, which were tested for 96 h due to their slower proliferation rate). In this setting, the SRB assay informs us of long-term changes to cell proliferation. We assessed the maximal inhibition within that concentration range, and descriptive statistics were performed. We performed a one-way ANOVA, followed by the Kruskal–Wallis test, regardless of the normal or non-normal distribution of the data. Due to the large number of significance values, the results of the significance calculations are provided in an Excel spreadsheet at https://figshare.com/s/28d14597d5041f08eb08 (accessed on 6 January 2022), among other primary data of the study. Where possible, nonlinear regression was performed on the curves to determine the IC50 values ((inhibitor) vs. response—variable slope (four parameters) method with Graphpad v8.0.1). […] In Table 5, we added the IC50 values that we determined for a set of 4 active ruthenium half-sandwich complexes we identified previously, to be used in subsequent structure-activity relationship (SAR) analyses.
A2780 cells were cultured in RMPI 1640 medium, supplemented with 10% fetal calf serum, 2 mM glutamine, and 1% penicillin-streptomycin.
(§2) The assay was performed similarly to the method used in [73]. Cells were seeded in 96-well plates the day before the assay. Cells were treated with the compounds for 48 h, with the exception of L428, where 96 h of treatment was applied. Cells were fixed with 10% trichloroacetic acid (TCA). Fixed cells were washed in distilled water 3 times, followed by staining with SRB (0.4 m/V% dissolved in 1% acetic acid) for 10 min. The stained cells were washed in 1% acetic acid 5 times; the acetic acid was removed, and the cells were left to dry. Protein-bound SRB was released by adding 100 µL 10 mM Tris base. Plates were measured in a plate photometer (Thermo Scientific Multiscan GO spectrophotometer, Waltham, MA, USA) at 540 nm. On each plate, wells were designed to contain untreated cells. In calculations, the readings for these wells were considered as 1 and all readings were expressed relative to these values.
(§3) Statistical analysis was performed using the 8.0.1 version of Graphpad Prism. Values were tested for normal distribution, using the d’Agostino and Pearson normality test. When necessary, values were log-normalized or were normalized using the Box-Cox normalization method or using a two-step transformation, as indicated in the figure captions. Nonlinear regression was performed using the built-in “[Inhibitor] vs. Response—Variable slope (four parameters), least-square fit” utility of Graphpad, yielding the IC50 and Hill slope values.

In series [2] the test system is ID8 ovarian cancer cell line. In words: SRB assay, 48 h, cytostasis, ID8. The format is cell-based. The note with it: for IC50 / ID8 Max. Inh. (%): SRB assay, 48 h; for ID8 Max. Inh. (%): ND = not detected. The procedure: as §1
ID8 cells were cultured in a high-glucose DMEM (4.5 g/L glucose) medium, supplemented with 4% fetal calf serum, 2 mM glutamine, 1% penicillin-streptomycin, and 1% ITS supplement (I3146).
as §2, §3

In series [3] the test system is Saos, an osteosarcoma cell line. In words: SRB assay, 48 h, cytostasis, Saos. The note with it: for Saos Max. Inh. (%) / IC50: SRB assay; for Saos Max. Inh. (%): ND = not detected. It counts as cell-based.
Excerpt: (§4) We turned next to assessing whether the cytostatic activity of Os-3, Os-4, Os-5, Os-6 and Ir-6 complexes is specific for ovarian cancer cell lines or if they may be active on other cell lines. To that end, we tested the complexes on another carcinoma cell line (Capan2, a pancreatic adenocarcinoma cell line), on a sarcoma cell line (Saos, an osteosarcoma cell line) and on a lymphoma cell line (L428, a Hodgkin’s lymphoma cell line).
Saos cells were maintained in DMEM (4.5 g/L glucose) medium, supplemented with 10% fetal calf serum, 2 mM glutamine, and 1% penicillin-streptomycin.
as §2, §3
(§5) Here, 1.5 × 10^3 Capan2, 3 × 10^3 Saos cells and 10^4 L428 cells were plated onto 96-well plates. Capan2 and Saos cells were treated with the compounds in the concentrations indicated for 48 h for an SRB assay. L428 cells were treated with the compounds in the concentrations indicated for 96 h, then cells were counted using conventional microscopy and a Burker chamber. Data are represented as average ± SD, from three biological replicates; individual assays were performed in duplicate. Values were normalized for vehicle-treated cells; the absorbance for vehicle-treated cells is equal to 1. A one-way ANOVA, followed by a Kruskal–Wallis test, was performed individually for each compound. The results of the statistical analysis are presented in an Excel spreadsheet at https://figshare.com/s/28d14597d5041f08eb08 (accessed on 6 January 2022). Nonlinear regression was performed on the data.
A general note: In SRB staining, fixed cells bind dye roughly in proportion to their protein.

Series [4] deals with L428, a Hodgkin's lymphoma cell line. In words: Cytostasis assay, 96 h, L428. The note with it: for cytostatic activity on L428 cells (in words): 96 h; for L428 Max. Inh. (%): 96 h treatment, ND = not detected. The format is cell-based. The procedure:
as §1, §4
L428 cells were maintained in RPMI 1640 medium, supplemented with 10% fetal calf serum, 2 mM glutamine, and 1% penicillin-streptomycin.
as §2
as §5, with “The results of the statistical analysis are presented in an Excel spreadsheet at https://figshare.com/s/28d14597d5041f08eb08 (accessed on 6 January 2022). Nonlinear regression was performed on the data.” left out

The nature of series [5]: Determination of the distribution coefficients (logD), n-octanol/PBS. It counts as physicochemical. The note with it: n-octanol / PBS pH = 7.40, rt. The procedure: Before starting the experiments, n-octanol was saturated with an aqueous PBS solution (pH = 7.40) and vice versa. A solution of the appropriate complex (approximately 0.2–0.3 mg) in a mixture of 2.50 mL pre-saturated n-octanol and 2.50 mL pre-saturated PBS buffer was made, and the resulting mixture was then vigorously stirred for 3 days at rt. Based on our previous NMR stability experiments, this time is long enough to reach equilibrium among the various ionic complex species. Due to the lipophilic/hydrophilic features of the complexes, those with benzoyl protection could primarily be found in the n-octanol, while the complexes with O-peracetylated and O-deprotected ligands were in the aqueous PBS phase. The corresponding separated solution was centrifuged (ScanSpeed 406G instrument, 4000 RPM for 5 min) and the absorption of the ”stock solution” was determined (VWR UV-1600PC Spectrophotometer, 270–420 nm). Then, 2.00 mL of the stock solution was vigorously stirred with 16.00 mL of pre-saturated n-octanol or PBS solution. After one day had passed, the phases were separated, centrifuged, and the absorption of the solution was measured again. From the absorption difference of the stock solutions, the distribution coefficient (D) was determined using previously described formulae [71].

The structures appear in SMILES notation. “Also recorded” adds a separate entry of the source.

As to `Cc1ccc(C(C)C)cc1.F[P-](F)(F)(F)(F)F.O=C(OCC1OC(c2nnc(-c3ccccn3)o2)C(OC(=O)c2ccccc2)C(OC(=O)c2ccccc2)C1OC(=O)c1ccccc1)c1ccccc1.[Cl][Os+]` (mixture of isomers) [Os-3], in series [1], the “cytostatic activity on A2780 cells in SRB assay (in words)” value (“cytostatic activity on A2780 cells” for short) is listed as “exerted cytostatic activity”; the half-inhibitory concentration (IC50) (as a rule, the concentration at which inhibition is half-maximal) was 2520 nM; the “A2780 Max. Inh. (%)” value is 100%. Besides, in series [2], the midpoint of inhibition, the IC50, lay at 5940 nM and the “ID8 Max. Inh. (%)” value came to 100%. Besides, in series [3], the “cytostatic activity on Saos cells (in words)” value is reported as “active on all cell lines” and the “Saos Max. Inh. (%)” value was determined as 65%. In series [4], the “cytostatic activity on L428 cells (in words)” value is reported as “active on all cell lines” and the “L428 Max. Inh. (%)” value worked out at 100%. Besides, in series [5], the LogD (commonly the decadic logarithm of the distribution of all forms, ionised or not, between an organic phase and buffer at a given pH) is 3.32.
For the molecule `Cc1ccc(C(C)C)cc1.F[P-](F)(F)(F)(F)F.O=C(OCC1OC(n2cc(-c3ccccn3)nn2)C(OC(=O)c2ccccc2)C(OC(=O)c2ccccc2)C1OC(=O)c1ccccc1)c1ccccc1.[Cl][Os+]` (mixture of isomers) [Os-6], in series [1], the “cytostatic activity on A2780 cells” value is “exerted cytostatic activity”, the IC50 was 700 nM and the “A2780 Max. Inh. (%)” value is given as 100%. In addition, in series [2], the IC50 was 1960 nM and the “ID8 Max. Inh. (%)” value was found to be 100%. Besides, in series [3], the “cytostatic activity on Saos cells (in words)” value was “active on all cell lines”, half-maximal inhibition (IC50) required 3600 nM and the “Saos Max. Inh. (%)” value was found to be 100%. For the same molecule, in series [4], the “cytostatic activity on L428 cells (in words)” value is “active on all cell lines” and the “L428 Max. Inh. (%)” value was found to be 100%. The molecule further registered a LogD in series [5] of 2.33.
Consider `Cc1c(C)c(C)[c-](C)c1C.F[P-](F)(F)(F)(F)F.O=C(OCC1OC(n2cc(-c3ccccn3)nn2)C(OC(=O)c2ccccc2)C(OC(=O)c2ccccc2)C1OC(=O)c1ccccc1)c1ccccc1.[Cl][Ir+2]` (mixture of isomers) [Ir-6], for which, in series [1], the “cytostatic activity on A2780 cells” value was “pronounced; also recorded: displayed cytostatic activity”; the midpoint of inhibition, the IC50, lay at 1640 nM; the “A2780 Max. Inh. (%)” value is recorded as 100%. The “cytostatic activity on ID8 cells, SRB assay (in words)” value in series [2] (48 h treatment) is listed as “pronounced cytostatic activity”. Besides, in series [2], the IC50 was determined as 980 nM and the “ID8 Max. Inh. (%)” value was 100%. Moreover, in series [3], the “cytostatic activity on Saos cells (in words)” value was “active on all cell lines”, the IC50 amounted to 2710 nM and the “Saos Max. Inh. (%)” value was 100%. In addition, in series [4], the “cytostatic activity on L428 cells (in words)” value is “active on all cell lines” and the “L428 Max. Inh. (%)” value amounted to 100%. Moreover, the log distribution coefficient (LogD) in series [5] was found to be 2.36.
Regarding `Cc1ccc(C(C)C)cc1.F[P-](F)(F)(F)(F)F.O=C(OCC1OC(c2nnc(-c3ccccn3)o2)C(OC(=O)c2ccccc2)C(OC(=O)c2ccccc2)C1OC(=O)c1ccccc1)c1ccccc1.[Cl][Os+]` (mixture of isomers) [Os-4], in series [1], the “cytostatic activity on A2780 cells” value is on record as “exerted cytostatic activity”, 3230 nM corresponded to half-maximal inhibition (IC50) and the “A2780 Max. Inh. (%)” value came out at 100%. In series [2], half-maximal inhibition (IC50) was put at 6950 nM and the “ID8 Max. Inh. (%)” value stood at 100%. In series [3], the “cytostatic activity on Saos cells (in words)” value is “active on all cell lines”, inhibition was half-maximal at 8780 nM (IC50) and the “Saos Max. Inh. (%)” value is 100%. Besides, in series [4], the “cytostatic activity on L428 cells (in words)” value is given as “active on all cell lines” and the “L428 Max. Inh. (%)” value worked out at 100%. For the same molecule, the LogD in series [5] worked out at 2.87.
On to `Cc1ccc(C(C)C)cc1.F[P-](F)(F)(F)(F)F.O=C(OC1COC(c2nnc(-c3ccccn3)o2)C(OC(=O)c2ccccc2)C1OC(=O)c1ccccc1)c1ccccc1.[Cl][Os+]` (mixture of isomers) [Os-5], for which, in series [1], the “cytostatic activity on A2780 cells” value is on record as “exerted cytostatic activity”, half-maximal inhibition (IC50) was put at 2810 nM and the “A2780 Max. Inh. (%)” value was found to be 100%. In series [2], the half-inhibitory concentration (IC50) was 1960 nM and the “ID8 Max. Inh. (%)” value is listed as 100%. In addition, in series [3], the “cytostatic activity on Saos cells (in words)” value was “active on all cell lines”, 8520 nM corresponded to half-maximal inhibition (IC50) and the “Saos Max. Inh. (%)” value worked out at 100%. In series [4], the “cytostatic activity on L428 cells (in words)” value is on record as “active on all cell lines” and the “L428 Max. Inh. (%)” value came to 100%. The molecule further registered a LogD in series [5] of 2.36.
